Entries after “also recorded” stand apart in the source; their conditions may differ.
Tests used:
[1] = 1H NMR interaction of vitamin B12 with clioquinol glucuronide; format: binding
Protocol: FIG. 1 depicts the NMR spectra of three solutions. Solution a contained vitamin B12 (hydroxycobalamin), at a concentration of 2.6 mM.
(§1) The mixture was analyzed by ^1 H NMR.
(§2) Three different solutions were prepared and their ^1 H NMR spectra were recorded in a DRX 400 MHz spectrophotometer at 20° C. Solution a) contained free vitamin B12 (hydroxycobalamin) in a concentration of 2.6 mM.

[2] = Solubility in water / aqueous solutions; format: physicochemical; conditions: water / aqueous solutions for NMR testing
Protocol: as §1, §2

[3] = test system: vitamin B12 ([^57 Co]-cyanocobalamine) metabolism; assay: Influence of clioquinol on vitamin B12 in vivo: [57Co]-cyanocobalamine radioactivity in dissected tissues; set-up: species or system mice
Protocol: After three days, all of the mice were injected with [^57 Co]-cyanocobalamine. After two days, the animals were sacrificed, and the brain, liver and kidney were dissected and counted in a gamma-counter as thousand cpm/g tissue (wet weight)±SEM. The radioactivities in each of the groups are stated in Table 1 below: […]

[4] = mass spectrophotometry; cited from earlier work
[5] = mass spectrophotometry; cited from earlier work; remark: listed apart in the source
[6] = mass spectrophotometry; cited from earlier work; remark: listed apart in the source
[7] = mass spectrophotometry; cited from earlier work; remark: listed apart in the source
[8] = mass spectrophotometry; cited from earlier work; remark: listed apart in the source
[9] = cited from earlier work
[10] = monkeys, microautoradiographic techniques; terminal axodendritic boutons of the mossy fibres; cited from earlier work
[11] = unconjugated clioquinol, injected intravenously; crosses the blood-brain-barrier; cited from earlier work
[12] = in vivo; cited from earlier work
Heliocobacter pylori = conditions: in vivo; cited from earlier work
neurotoxic injury = conditions: in vivo; cited from earlier work

| SMILES | shift of resonances in the mixture ([1]; aromatic region, benzimidazole moiety (vitamin B12), quinoline moiety (clioquinol glucuronide)) | interaction between clioquinol glucuronide and vitamin B12 ([1]; buffered water pH 6.5, 20° C, 2.6 mM vitamin B12 + 10 mM clioquinol glucuronide) | solubility in water [2] | radioactivity, Brain ([3]; brain, clioquinol 50 mg/kg/day, [57Co]-cyanocobalamine after three days, sacrificed after two days, ±SEM, control 9.4 ± 0.9) | amount of vitamin B12 trapped in the kidneys, in words ([3]; kidney, versus control) | radioactivity, Kidney ([3]; kidney, clioquinol 50 mg/kg/day, [57Co]-cyanocobalamine after three days, sacrificed after two days, ±SEM, control 895 ± 207) | radioactivity, Liver ([3]; liver, clioquinol 50 mg/kg/day, [57Co]-cyanocobalamine after three days, sacrificed after two days, ±SEM, control 97 ± 8) | coordination number for Co(II) [4] | coordination number for Ni(II) [5] | coordination number for Cu(II) [6] | coordination number for Zn(II) [7] | coordination number for Fe(III) [8] | concentration in areas of the brain such as the hippocampus, in words [9] | zinc chelates in the hippocampus [10] | penetration into the nervous system [11] | excretion [12] | effect in the treatment of Heliocobacter pylori (Heliocobacter pylori) | effect in the treatment of neurotoxic injury (neurotoxic injury) |
| --- | --- | --- | --- | --- | --- | --- | --- | --- | --- | --- | --- | --- | --- | --- | --- | --- | --- | --- |
| COC(=O)[C@H]1OC(Oc2c(I)cc(Cl)c3cccnc23)[C@H](OC(C)=O)[C@@H](OC(C)=O)[C@@H]1OC(C)=O (stereo partly shown) [clioquinol glucuronide, methyl(5-chloro-7-iodo-quinolyl-2',3',4'-tri-O-acetyl-glycopyranosid)uronate] | the same is observed for two resonances of the clioquinol glucuronide | hydrophobic interaction between clioquinol glucuronide and vitamin B12; also recorded: vitamin B12 binds to clioquinol glucuronide | soluble in water | – | – | – | – | – | – | – | – | – | – | – | – | – | – | – |
| Oc1c(I)cc(Cl)c2cccnc12 [Clioquinol, 5-chloro-7-iodo-8 hydroxyquinoline] | – | – | cannot be dissolved in aqueous solutions | 8.4 ± 1.5 thousand cpm/g tissue (wet wei | decreased in the kidney; also recorded: A reduction in the amount of vitamin B12 trapped in the kidneys | 252 ± 61 thousand cpm/g tissue (wet wei | 85 ± 21 thousand cpm/g tissue (wet wei | 2 | 2 | 2 | 2 | 3 | high | form zinc chelates in the hippocampus | extremely rapid penetration into the nervous system | excreted through the kidneys as glucuronide or sulfate derivatives; also recorded: excreted through the kidneys as glucuronide derivatives | effective | effective |
